Measured values taken from patent publication US20250101063A1, “POLYPEPTIDE COMPOUND AND USE THEREOF IN TREATMENT OF ENTERITIS” (Sichuan Gooddoctor Panxi Pharmaceutical Co., Ltd., priority 2022, published 2025).
Where no end group is shown, it is not given here. [ ]: non-standard residue; d: D form.

Test system: zebrafish model of intestinal mucosal injury
Assay: Efficacy in relieving colitis: intestinal lumen area in TNBS-treated zebrafish
Type: in vivo
Design: key to Activity in relieving intestinal lumen dilatation: * p < 0.05; ** p < 0.01; *** p < 0.001; “−“ indicates absence of activity; “+” indicates some relief of intestinal lumen dilatation; “#” indicates that all the zebrafishes died in the experiment; “&” indicates that 13 zebrafishes died in the experiment
Settings: 250 μg/mL in water, 2 days after TNBS, n = 10
Method: Experimental animals: Wild-type AB strain zebrafishes, bred by natural pair mating. Zebrafishes aged 3 days post fertilization (3 dpf). Zebrafishes were kept in fish farming water at 28° C. (water quality: 200 mg of instant sea salt in each 1L of reverse osmosis water, with the conductivity of 450-550 μS/cm; pH of 6.5-8.5; and hardness of 50-100 mg/L CaCO3), the experimental animal use license number is: SYXK (Zhe) 2012-0171, and the breeding management met the requirements of the international AAALAC certification (certification number: 001458).
(1) Grouping: Polypeptide group: prepared into a stock solution of 20.0 mg/mL with ultrapure water and stored at −20° C.
Positive control group: prednisone, as white powder, with batch number C10016501, Shanghai Macklin Biochemical Technology Co., Ltd., stored at 4° C.; prepared into a 15.0 mg/mL stock solution with DMSO, and stored in aliquots at −20° C.
Normal control group and model control group.
(2) Experimental method: 3 dpf wild-type AB strain zebrafishes were randomly selected and placed in a 6-well plate, with 30 zebrafishes in each well (experimental group). Except for the normal control group, all other experimental groups were given TNBS in water to establish the zebrafish model of intestinal mucosal injury. After 2 days of treatment at 28° C., TNBS was removed, and polypeptide compound in water (at concentrations shown in Table 4) was given respectively, and for the positive control, prednisone was 15.0 μg/mL. A normal control group (healthy group) and a model control group (intestinal mucosal injury group) were set up at the same time. The capacity of each well (experimental group) was 3 mL. After 2 days of treatment at 28° C., 10 zebrafishes were randomly selected from each experimental group and photographed under a dissecting microscope. NIS-Elements D 3.20 advanced image processing software was used to analyze and collect data, and the intestinal lumen area of the zebrafish was analyzed. The statistical analysis results of this indicator were used to evaluate the efficacy of the samples in relieving colitis. The statistics results were expressed as mean±SE. SPSS26.0 software was used for statistical analysis, and p<0.05 indicates statistically significant difference.
The concentration gradient of the test substances set in this experimental system was 250 μg/mL, 500 μg/mL, and 1000 μg/mL. […] When the concentration of the test substance was further increased for intervention, the death phenomenon of zebrafishes was found in the group; therefore, in the subsequent rounds of activity evaluation, each test polypeptide compound was uniformly administered at 1000 μg/mL for intervention.

Substance	Intestinal lumen area (pixels, mean ± SE) [pixels]
KEPVPQAK [Compound 4]	48915 ± 2720

Same assay, conditions: 500 μg/mL in water, 2 days after TNBS, n = 10

Substance	Intestinal lumen area (pixels, mean ± SE) [pixels]
KEPVPQAK [Compound 4]	40432 ± 3736

Same assay, conditions: 1000 μg/mL in water, 2 days after TNBS, n = 10

Substance	Intestinal lumen area (pixels, mean ± SE) [pixels]
KEPVPQAK [Compound 4]	33664 ± 3758

Same assay, conditions: 1000 μg/mL; significance vs model control group of the same batch

Substance	Activity in relieving intestinal lumen dilatation
KEPAPQAKPRKVAAQ [Compound 25]	** (** p < 0.01)
KEPIPQAKPRKVAAQ [Compound 106]	** (** p < 0.01)
KEPVAQAKPRKVAAQ [Compound 22]	+
KEPVGQAKGRKVAAQ [Compound 34]	* (* p < 0.05)
KEPVGQAKPRKVAAQ [Compound 32]	+
KEPVPAAKPRKVAAQ [Compound 23]	+
KEPVPQ [Compound 87]	+
KEPVPQAAPRKVAAQ [Compound 24]	+
KEPVPQAK [Compound 4]	* (* p < 0.05)
KEPVPQAKARKVAAQ [Compound 26]	* (* p < 0.05)
KEPVPQAKGRKVAAQ [Compound 33]	+
KEPVPQAKPAKVAAQ [Compound 27]	+
KEPVPQAKPRAVAAQ [Compound 28]	+
KEPVPQAKPRKAAAQ [Compound 29]	* (* p < 0.05)
KEPVPQAKPRKVAAA [Compound 30]	+
KEPVPQAKPRKVAAE [Compound 103]	* (* p < 0.05)
KEPVPQAKPRKVAAN [Compound 104]	*** (*** p < 0.001)
KEPVPQAKPRKVAA[dQ] [Compound 75]	* (* p < 0.05)
KEPVPQAKPRKVA[dA]Q [Compound 74]	+

Substance	Activity in relieving intestinal lumen dilatation
KEPVPQAKPRK[dV]AAQ [Compound 72]	** (** p < 0.01)
KEPVPQAKPR[dK]VAAQ [Compound 71]	+
KEPVPQAKP[dR]KVAAQ [Compound 70]	* (* p < 0.05)
KEPVPQAK[dP]RKVAAQ [Compound 69]	+
KEPVPQA[dK]PRKVAAQ [Compound 68]	** (** p < 0.01)
KEPVPQ[dA]KPRKVAAQ [Compound 67]	* (* p < 0.05)
KEPVP[dQ]AKPRKVAAQ [Compound 66]	* (* p < 0.05)
KEPV[dP]QAKPRKVAAQ [Compound 65]	* (* p < 0.05)
KEP[dV]PQAKPRKVAAQ [Compound 64]	+
KE[dP]VPQAKPRKVAAQ [Compound 63]	*** (*** p < 0.001)
KQPVPQAKPRKVAAQ [Compound 105]	** (** p < 0.01)
K[dE]PVPQAKPRKVAAQ [Compound 62]	* (* p < 0.05)
Lys-Glu-Pro-Val (KEPV; printed: Lys-Glu-Pro-Val) [Compound 7]	+
Lys-Glu-Pro-Val-Pro (KEPVP; printed: Lys-Glu-Pro-Val-Pro) [Compound 85]	* (* p < 0.05)
Lys-Pro-Arg-Lys (KPRK; printed: Lys-Pro-Arg-Lys) [Compound 10]	** (** p < 0.01)
Lys-Val-Ala-Ala (KVAA; printed: Lys-Val-Ala-Ala) [Compound 16]	+
NPVPQAK [Compound 50]	* (* p < 0.05)
PAYKEPVPQAKPRKVAAQ [Compound 90]	* (* p < 0.05)

Same assay, conditions: 250, 500, 1000 μg/mL; Table 4

Substance	Intestinal lumen area compared with the model control group (in words)
KEPVPQAK [Compound 4]	significant statistical differences compared with the model control group
